Test results published in patent US20220184081A1, “ANTIPRURITIC AGENT USING PAC1 RECEPTOR ANTAGONIST” (KAGOSHIMA UNIVERSITY, priority 2019, published 2022).

Experiments:
[1] = test system: chloroquine-induced itch behavior in mice; test: Itch behavior induced by chloroquine intradermal administration; format: in vivo, mouse; conditions: intrathecal pre-administration (i.t., 10 minutes before i.d.), 1 nmol; chloroquine 100 μg/10 μL; FIG. 10
Description: Chloroquine (100 μg/10 μL) was intradermally injected into the waist of each mouse (intradermal injection, i.d.). The reaction of biting, licking or scratching the injected site was defined as itch behavior, and the behavioral time was counted every 5 minutes. […] DMSO (10% solution, dissolved in normal saline) is a solvent for PA-8 or PA-9.

[2] = test system: serotonin (5-HT)-induced itch mouse model; test: Serotonin (5-HT)-induced itch mouse model; format: in vivo; conditions: intrathecal pre-administration 30 minutes before 5-HT 50 nmol i.d.; PA-8 0.1 or 1 nmol; P6-38 100 pmol; FIG. 1
Description: 5-HT (50 nmol, 10 μL) was intradermally injected into the waist of each mouse (intradermal injection, i.d.). The reaction of the mice to bite, lick or scratch the injected site was defined as an itch behavior, and the action time was measured every 5 minutes. […] SLN indicates the effects obtained in the case of administering normal saline instead of 5-HT. ACSF is an abbreviation of an artificial cerebrospinal fluid, which was a solvent for P6-38 and PA-8.

[3] = test system: atopic dermatitis mouse model; test: Atopic dermatitis mouse model (DNFB); format: in vivo, ICR mice; conditions: 30 mg/kg p.o. 30 minutes before 1 hour video observation; FIG. 13
Description: The present test was carried out with reference to the method of Kitamura et al. that is a test system published as a method for evaluating itch in animals (Kitamura A., Takata R., Aizawa S., et al.: A murine model of atopic dermatitis can be generated by painting the dorsal skin with hapten twice 14 days apart, Scientific Rep., 8: 5988, 2018).
Five-week-old ICR mice (30 mice) were each placed in a cage, and were then conditioned for 1 week. Thereafter, three days before initiation of the test, the waist of each mouse was shaved. On the experiment start date, for the purpose of destroying the function of skin barrier, tape stripping was carried out, and 0.15% 2,4-dinitrofluorobenzene (DNFB) solution [acetone/olive oil (3:1)] was applied to the shaved waist of each mouse, using a 100-μIL pipette. Seven days later, the 0.15% DNFB solution was applied thereto once again, and two hours later, video observation was carried out for 1 hour. The shaved 30 mice were divided into 5 groups (6 mice per group), namely, a 30 mg/kg PA-8 oral (p.o.) administration group, a 30 mg/kg compound 2o oral (p.o.) administration group, a 30 mg/kg PA-9 oral (p.o.) administration group, a 30 mg/kg compound 3d (p.o.) administration group, and a solvent administration group (VEH: oral administration of 10% DMSO aqueous solution). Oral administration was carried out 30 minutes before initiation of the video observation.
An outline of the procedures of a behavioral experiment using the atopic dermatitis mouse model is shown in FIG. 12, and the results obtained by evaluating the time spent in scratching of each group are shown in FIG. 13.

mouse PAC1 receptor = target: T1, mouse PAC1 receptor (Mus musculus, UniProt P70205); test: CREB phosphorylation by PACAP stimulus, Western blot, PAC1/CHO cells; format: cell-based
T1 construct: expressed in transfected cells; host or cells: CHO cells
T1 sequence (P70205 21-496): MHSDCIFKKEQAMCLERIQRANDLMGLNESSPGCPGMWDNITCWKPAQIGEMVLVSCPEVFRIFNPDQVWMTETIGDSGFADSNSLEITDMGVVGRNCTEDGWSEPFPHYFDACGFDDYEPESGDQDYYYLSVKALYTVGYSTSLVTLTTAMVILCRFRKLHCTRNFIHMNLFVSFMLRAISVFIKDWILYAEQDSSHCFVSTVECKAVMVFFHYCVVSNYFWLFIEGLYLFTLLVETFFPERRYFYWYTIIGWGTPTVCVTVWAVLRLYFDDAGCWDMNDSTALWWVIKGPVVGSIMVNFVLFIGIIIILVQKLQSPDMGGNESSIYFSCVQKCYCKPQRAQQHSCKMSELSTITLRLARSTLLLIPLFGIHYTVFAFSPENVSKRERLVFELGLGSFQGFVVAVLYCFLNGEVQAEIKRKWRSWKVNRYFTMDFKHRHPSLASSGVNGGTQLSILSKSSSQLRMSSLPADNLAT
Description: The effect of each compound on the phosphorylation of CREB (cAMP-responsive element-binding protein) produced by a PACAP stimulus was examined by Western blot analysis using an anti-phosphorylated CREB (pCREB) antibody with a mouse PAC1 receptor-expressing CHO cells (PAC1/CHO cells) and a mouse VPAC1 receptor-expressing CHO cells (VPAC1/CHO cells).
Specifically, treatment with a compound (PA-8, compound 2j and compound 2o) at 10 pM to 10 nM or a solvent therefor, DMSO (VEH: 0.1% DMSO-containing phosphate buffer solution) was performed for 30 minutes, 1 nM PACAP was then added, and protein was recovered within 30 minutes after a PACAP stimulus.
The effect of each compound on the phosphorylation of CREB (cAMP-responsive element-binding protein) produced by a PACAP stimulus was examined by Western blot analysis using an anti-phosphorylated CREB (pCREB) antibody with a mouse PAC1 receptor-expressing CHO cells (PAC1/CHO cells).

[4] = test system: PACAP-induced itch behavior in mice; test: Itch behavior induced by PACAP intradermal administration; format: in vivo, mouse; conditions: simultaneous intradermal administration with PACAP, 0.01 to 1 nmol; FIG. 7A, 8, 9
Excerpt: SLN indicates intradermal administration of normal saline. DMSO (10% solution, dissolved in normal saline) is a solvent for PA-8.
SLN indicates intradermal administration of normal saline. VEH (10% DMSO solution, dissolved in normal saline) is a solvent for PA-8 and the compound 2o.
SLN indicates intradermal administration of normal saline. VEH (10% DMSO solution, dissolved in normal saline) is a solvent for PA-9 and the compound 3d.

## C=CCOc1ccc(C2CC(=O)Nc3nc(N)[nH]c(=O)c32)cc1OC (stereo not drawn) [PA-8]
[1]
  chloroquine-induced itch behavior: almost completely suppressed
[2]
  5-HT-induced itch behavior (bite, lick or scratch the injected site, action time): almost completely suppressed
[3]
  itch behavior induced by the DNFB treatment (time spent in scratching): significantly suppressed
Mouse PAC1 receptor; PAC1/CHO cells, compound 10 pM to 10 nM for 30 minutes before PACAP, FIG. 4A, 4C, 4D, 5
  CREB phosphorylation by PACAP (1 nM): suppressed CREB phosphorylation
Mouse PAC1 receptor; concluded from PAC1/CHO and VPAC1/CHO pCREB data
  receptor selectivity (PAC1 versus VPAC1): PAC1 receptor selective antagonist
[4]
  biting, licking or scratching behavior induced by PACAP (100 pmol) intradermal administration: suppressed in a dose-dependent manner
